Source: patent US7625891B2, “Heterocylic antiviral compounds” (Roche Palo Alto LLC, priority 2007, dated 2009)

B1: RANTES: CC chemokine, naturally occurring ligand that can stimulate the CCR5 receptor (protein, UniProt P13501 24-91, looked up)
C-C motif chemokine 5: SPYSSDTTPCCFAYIARPLPRAHIKEYFYTSGKCSNPAVVFVTRKNRQVCANPEKKWVREYINSLEMS

What was measured:
[1] = biological target: T1, CCR5 (Homo sapiens, UniProt P51681); test: Human CCR5 receptor-ligand binding assay (125I RANTES, CHO-Gα16-hCCR5 cells); set-up: expressed in transfected cells
Method: The construct was transfected into CHO-Gα16 cells by using Fugene Reagent (Roche).
Adherent cells in […] tissue culture flask (ca. 90% confluent) were harvested using 1 mM EDTA in PBS (phosphate-buffered saline) without Ca^2+ and Mg^2+. Cells were washed twice with PBS containing no Ca^2+ and Mg^2+.
Eighty μl CHO-Gα16-hCCR5 (1×10^6/mL) cells were added to 96 well plates.
The compound dilutions were made in PBS, 1% BSA. Total reaction volume was 100 μl per well. The test compounds were added to the cells prior to the addition of radioligand.
After incubation, the cells were harvested onto GF/C filter plates using Packard cell harvester. Filters were pretreated with 0.3% PEI/0.2% BSA for 30 min. The filter plate was washed rapidly 5 times with 25 mM HEPES, 500 mM NaCl, 1 mM CaCl2 and 5 mM MgCl2 adjusted to pH 7.1. Plates were dried in oven (70° C.) for 20 min, added with 40 μl scintillation fluid and sealed with Packard TopSeal-A. Packard Top Count was used to measure of the radioactivity for 1 min per well.
Total binding was determined with control wells added with radioisotope and buffer and the non-specific binding was determined using an excess cold RANTES to some of the control wells. Specific binding was determined by subtracting the non-specific form total binding. […] IC50 values were determined using varying concentrations of the test ligand in triplicates and the data was analyzed using GraphPad Prism (GraphPad, San Diego, Calif.).

[2] = system: NLBal pseudotyped HIV-1; test: microbe, parasite or virus in culture; type: cell-based; conditions: Human immunodeficiency virus 1, JC53BL, 72 h
Method: The sensitivity of a recombinant HIV-1 virus pseudotyped with the envelope proteins of the CCR5-tropic virus NLBal to test compounds was determined in a Luciferase reporter assay using JC53BL cells. NLBal pseudotyped HIV-1 was generated by calcium phosphate transfection of 293T cells (ATCC) with equal amounts of DNA of an envelope-deleted HIV-1 plasmid and of a NLBal envelope expression plasmid. The media (DMEM, 10% fetal bovine serum, 1% Penicillin/streptomycin, 1% Glutamine, all Gibco) was changed 16 h post-transfection and virus containing supernatant was harvested 48 h post-transfection. To determine the sensitivity of NLBal pseudotyped HIV-1, 25.000 JC53BL cells (NIH AIDS Reagent Program) were infected with NLBal pseudotyped HIV-1 in presence of a drug gradient in white 96 well plates (Greiner Bio-one). The volume was adjusted to 200 μL using assay media (DMEM, 10% fetal bovine serum, 1% Penicillin/streptomycin, 1% Glutamine). After incubation at 37° C., 90% relative humidity, 5% CO2 for 3 days, 50 μL of Steady-Glo® Luciferase reagent (Promega) was added, incubated for 5 min at RT and luminescence was measured using a luminometer (Luminoskan, Thermo). The 50% and 90% inhibitory concentrations were calculated using Microsoft XL Fit 4 software.

[3] = biological target: T1, CCR5; test: CCR5-mediated CCF (cell-cell fusion) assay, Hela-R5 / CEM-NKr-CCR5-Luc, luciferase readout; type: cell-based; set-up: host or cells: CEM-NKr-CCR5-Luc cells; conditions: 24 hrs co-culture
Method: The capacity for novel compounds of the present invention to bind to the CCR5 receptor and thereby antagonize CCR5 function can be evaluated with assay systems known in the art. The capacity of compounds of the present invention to inhibit infection of CD4^+/CCR5^+ expressing cells can be determined using a cell-cell fusion assay as described in example 8 or an antiviral assay as described in example 9.
CCF assay was performed as described before (C. Ji, J. Zhang, N. Cammack and S. Sankuratri, J. Biomol. Screen. 2006 11(6):652-663). Hela-R5 cells (express gp160 from R5-tropic virus and HIV-1 Tat) were plated in 384 well white culture plates (BD Bioscience, Palo Alto, Calif.) at […] per well in phenol red-free Dulbecco's Modified Eagle Medium (DMEM) supplemented with 10% FBS, 1× Pen-Strep, 300 μg/mL G418, 100 μg/mL hygromycin, and 1 μg/mL Doxycycline (Dox) (BD Bioscience, Palo Alto, Calif.), using Multimek (Beckman, Fullerton, Calif.) and incubated at 37° C. overnight to induce the expression of gp160. Ten μL diluted compounds in medium containing 5% DMSO were added to the cells, followed by the addition of CEM-NKr-CCR5-Luc (obtained from NIH AIDS Research & Reference Reagents Program) that expresses CD4 and CCR5 and carries a […] long terminal repeat (LTR)-driven luciferase reporter gene at 1.5×10^4 cells/15 μL/well and incubated for 24 hrs. At the end of co-culture, 15 μL of Steady-Glo luciferase substrate was added into each well, and the cultures were sealed and gently shaken for 45 min. The luciferase activity were measured for 10 sec per well as luminescence by using 16-channel TopCount NXT (PerkinElmer, Shelton, CT) with 10 min dark adaptation and the readout is count per second (CPS). For the drug interaction experiments, small molecule compounds or antibodies were serially diluted in serum-free and phenol red-free RPMI containing 5% DMSO (CalBiochem, La Jolla, Calif.) and 1× Pen-Strep. Five μL each of the two diluted compound or mAb to be tested for drug-drug interactions were added to the Hela-R5 cells right before the addition of target cells.

[4] = system: collagen-induced arthritis; conditions: collagen-induced arthritis model; cited from earlier work
[5] = system: HIV; conditions: cited from earlier work
[6] = specific 125I RANTES binding, CHO-Gα16-hCCR5 cells, read-out: IC50

T1 sequence (P51681 whole entry): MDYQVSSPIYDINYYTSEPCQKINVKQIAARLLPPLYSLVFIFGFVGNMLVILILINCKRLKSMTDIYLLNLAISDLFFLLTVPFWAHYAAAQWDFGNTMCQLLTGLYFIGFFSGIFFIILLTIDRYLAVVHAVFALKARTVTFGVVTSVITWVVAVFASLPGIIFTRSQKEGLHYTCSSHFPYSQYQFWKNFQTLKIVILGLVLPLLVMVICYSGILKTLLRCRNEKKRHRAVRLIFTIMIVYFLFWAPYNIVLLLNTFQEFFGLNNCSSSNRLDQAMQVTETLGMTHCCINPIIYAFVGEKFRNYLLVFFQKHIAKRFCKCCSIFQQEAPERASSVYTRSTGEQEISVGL

| Molecule | IC50 [1, 6] | IC50 [2] | IC50 [3] | also measured |
| --- | --- | --- | --- | --- |
| CCCC[C@H]1CN(CC2COC3OCCC23)C(=O)OC12CCN(C1(C)CCN(C(=O)c3c(C)ncnc3C)CC1)CC2 (single isomer, unassigned) [II-6] | 38 nM |  |  |  |
| CCCCC1CN(C[C@H]2CC[C@H](OC)CC2)C(=O)OC12CCN(C1(C)CCN(C(=O)c3c(C)ncnc3C)CC1)CC2 (stereo partly drawn) [Compound I-3, 5-Butyl-9-[1-(4,6-dimethyl-pyrimidine-5-carbonyl)-4-methyl-piperidin-4-yl]-3-(trans-4-methoxy-cyclohexylmethyl)-1-oxa-3,9-diaza-spiro[5.5]undecan-2-one] |  |  |  | melting point: 150.8 to 152.9 °C |
| CCCCC1CN(C[C@H]2CC[C@H](OCC)CC2)C(=O)OC12CCN(C1(C)CCN(C(=O)c3c(C)ncnc3C)CC1)CC2 (stereo partly drawn) [Compound I-7, 5-Butyl-9-[1-(4,6-dimethyl-pyrimidine-5-carbonyl)-4-methyl-piperidin-4-yl]-3-(trans-4-ethoxy-cyclohexylmethyl)-1-oxa-3,9-diaza-spiro[5.5]undecan-2-one] |  |  |  | melting point: 188.3 to 189.7 °C |
| CCCCC1CN(C[C@H]2CC[C@@H](OCOC)CC2)C(=O)OC12CCN(C1(C)CCN(C(=O)c3c(C)ncnc3C)CC1)CC2 (stereo partly drawn) [Compound I-8, 5-Butyl-9-[1-(4,6-dimethyl-pyrimidine-5-carbonyl)-4-methyl-piperidin-4-yl]-3-(cis-4-methoxymethoxy-cyclohexylmethyl)-1-oxa-3,9-diaza-spiro[5.5]undecan-2-one] |  | 5.2 nM |  |  |
| CCCC[C@H]1CN(C[C@H]2[C@@H]3COC[C@@H]32)C(=O)OC12CCN(C1(C)CCN(C(=O)c3c(C)cc(C(F)F)nc3C)CC1)CC2 [II-4] | 10.8 nM |  |  |  |
| CCCC[C@H]1CN(C[C@H]2COCCO2)C(=O)OC12CCN(C1(C)CCN(C(=O)c3c(C)cc(C#N)nc3C)CC1)CC2 [II-10] | 17.2 nM | 2.6 nM | 1 nM |  |
| CCCCC1CN(CC2CCN(C(C)=O)CC2)C(=O)OC12CCN(C1(C)CCN(C(=O)c3c(C)ncnc3C)CC1)CC2 (stereo not shown) [III-1, 3-(1-Acetyl-piperidin-4-ylmethyl)-5-butyl-9-[1-(4,6-dimethyl-pyrimidine-5-carbonyl)-4-methyl-piperidin-4-yl]-1-oxa-3,9-diaza-spiro[5.5]undecan-2-one] |  |  | 25.2 nM |  |
| CCCCC1CN(CC2CCCN(C(C)=O)C2)C(=O)OC12CCN(C1(C)CCN(C(=O)c3c(C)ncnc3C)CC1)CC2 (stereo not shown) [III-2] |  |  | 17.4 nM |  |
| CCCC[C@H]1CN(CC2CCN(C(=O)OC)CC2)C(=O)OC12CCN(C1(C)CCN(C(=O)c3c(C)ncnc3C)CC1)CC2 [III-6] | 46.5 nM |  |  |  |
| CCCC[C@H]1CN(CC2CCN(CC(F)F)CC2)C(=O)OC12CCN(C1(C)CCN(C(=O)c3c(C)cc(C#N)nc3C)CC1)CC2 [III-12] |  |  |  | IC50 [1]: 49.4 nM |
| CCCC[C@H]1CN(C[C@H]2[C@@H]3CN(C(=O)OC)C[C@@H]32)C(=O)OC12CCN(C1(C)CCN(C(=O)c3c(C)noc3C(F)(F)F)CC1)CC2 [III-20] | 14 nM | 3 nM | < 2.5 nM |  |
| CCCC[C@H]1CN(C[C@H]2C[C@H]3CC[C@@H](C2)N3C(=O)OC)C(=O)OC12CCN(C1(C)CCN(C(=O)c3c(C)ncnc3C)CC1)CC2 [III-22] | 21.2 nM | 2.2 nM | 3 nM |  |
| CCCC[C@H]1CN(CC2CCN(S(C)(=O)=O)CC2)C(=O)OC12CCN(C1(C)CCN(C(=O)c3c(C)noc3C(F)(F)F)CC1)CC2 [III-23] | 38.8 nM | 6 nM | < 2.5 nM |  |
| CCCC[C@H]1CN(C2CCC(F)(F)CC2)C(=O)OC12CCN(C1(C)CCN(C(=O)c3c(C)ncnc3C)CC1)CC2 [IV-7, (S)-5-Butyl-3-(4,4-difluoro-cyclohexyl)-9-[1-(4,6-dimethyl-pyrimidine-5-carbonyl)-4-methyl-piperidin-4-yl]-1-oxa-3,9-diaza-spiro[5.5]undecan-2-one] | 19.2 nM |  |  |  |
| Cc1ccc(-c2ccc3c(c2)C=C(C(=O)Nc2ccc(C[N+](C)(C)C4CCOCC4)cc2)CCC3)cc1.[Cl-] [TAK-779] |  |  |  | incidence and severity of arthritis [4]: reduce both the incidence and severity of arthritis; infiltration of inflammatory CCR5+ T-cells into the joint [4]: inhibited |
| B1 |  |  |  | HIV entry into the cells [5]: block HIV entry into the cells |
